Measurements from US20250228834A1, “PHARMACEUTICAL COMPOSITION FOR THE TREATMENT OF COLON AND LUNG CANCER” (HEPAREGENIX GMBH, priority 2022, published 2025).

Columns and labels:
Format in all cases: cell-based
[1] = test system: KRAS mutant lung and colorectal cancer cells (H358, H2122, DLD1, HCT 116); test: Colony formation matrix (Assay Method A)
Experimental: (§1) • KRAS mutant lung and colorectal cancer cells: • Lung: H358 (G12C) (ATCC No: CRL-5807) • H2122 (G12C) (ATCC No: CRL-5985) • Colon:DLD1 (G13D) (ATCC No: CCL-221) • HCT 116 (G13D) (ATCC No: CCL-247)
(§2) All cell lines were cultured in RPMI 1640 medium (Gibco) supplemented with 10% fetal bovine serum, 1% glutamine and penicillin-streptomycin (Gibco) at 37° C. and 5% CO2. Mycoplasma contamination was excluded via a PCR-based method.
(§3) Cell lines were cultured and seeded into 24-well plates. After 24 h incubation, drugs were added using the HP D300 Digital Dispenser. Medium and drugs were refreshed twice a week for 10-14 days. After this, cells were fixed with 4% formaldehyde in PBS and stained with 0.1% crystal violet in water. The quantification of the colony formation matrixes (crystal violet staining per well) was assessed using ImageJ software.
According to Assay Method A cells (H358, H2122, DLD1, HCT 116) were treated with compound (A), Trametinib or their combination at the indicated concentrations (cf. FIG. 1). Drugs were refreshed twice a week. The cells were fixed and stained after 10 days.
According to Assay Method A cells (H358, DLD1, HCT 116) were treated with compound (A), SCH772984 or their combination at the indicated concentrations (cf. FIG. 2). Drugs were refreshed twice a week. The cells were fixed and stained after 10 days.

[2] = test system: KRASG12C mutant lung cancer cells (H358, H2122); test: Colony formation matrix (Assay Method A), Example 3; details: 10 days, FIG. 3
Experimental: as §1, §2, §3
According to Assay Method A cells (H358, H2122) were treated with compound (A), AMG510 or their combination at the indicated concentrations (cf. FIG. 3). Drugs were refreshed twice a week. The cells were fixed and stained after 10 days.

[3] = test system: KRAS G12C mutant cancer cell line H358; test: Colony formation matrix (Assay Method A), Example 4; details: compound (A) combined with RMC4550, 10 days, FIG. 4
Experimental: as §1, §2, §3
According to Assay Method A H358 cells were treated with compound (A), RMC4550 or their combination at the indicated concentrations (cf. FIG. 4). Drugs were refreshed twice a week. The cells were fixed and stained after 10 days.

[4] = test system: Lung Cancer Cells; test: IncuCyte proliferation assay (Assay Method C), confluence
Experimental: as §2
Drugs were refreshed twice a week.

[5] = test system: Lung Cancer Cells; test: IncuCyte Caspase 3/7 apoptosis assay (Assay Method C); details: compound (A) in combination with Trametinib, RMC4550 or AMG510; first 72 hours; FIG. 5B
Experimental: as §2
For IncuCyte proliferation assays and Caspase 3/7 assays, cells were seeded in 96-well plates. After 24 h incubation, drugs and the IncuCyte® Caspase-3/7 green apoptosis assays reagent (Essen Bioscience 4440) were added using the HP D300 Digital Dispenser and the plates were placed in the IncuCyte®. Culture media and drugs were refreshed twice a week for 10 days. Cells were imaged every 4 hours in the IncuCyte ZOOM (Essen Bioscience). Phase-contrast images were collected and analyzed to detect cell proliferation based on cell confluence. Apoptosis was measured based on green fluorescent staining of apoptotic cells using the IncuCyte® Caspase-3/7 green apoptosis assay reagent (Essen Bioscience 4440).
According to assay method C cells were treated with compound (A) as component a) and RMC4550, AMG510, or Trametinib as component b) or combinations of component a) and either one of component b) at the indicated concentrations. Additionally, during the first treatment, the IncuCyte® Caspase-3/7 green apoptosis assay reagent was added to measure apoptosis for the first 72 hours. […] Confluence (left) and Caspase 3/7 activity was measured by the IncuCyte®. […]

CCCS(=O)(=O)Nc1c(F)ccc(C(=O)c2c[nH]c3ncc(-c4cnc(C5CC5)nc4)cc23)c1F [compound (A), N-(3-(5-(2-cyclopropyl-pyrimidin-5-yl)-1H-pyrrolo[2,3-b]pyridine-3-carbonyl)-2,6-difluorophenyl)-propane-1-sulfonamide]
synergy with MEK, ERK, KRAS and SHP2 inhibition, overall conclusion ([1]; compound (A) combined with MEK, ERK, KRAS or SHP2 inhibitor, all obtained results): strongly synergizes | synergy with ERK inhibition in colony formation matrix ([1]; compound (A) combined with SCH772984, H358, DLD1, HCT 116, 10 days, FIG. 2): Synergizes | toxicity in colony formation matrix, single drug ([1]; single drug, KRAS mutant cancer cells (H358, H2122, DLD1, HCT 116), fixed and stained after 10 days, FIG. 1): did not show sensitivity | toxicity compared to the single agent effect of AMG510 ([2]; addition of compound (A) to AMG510, KRAS G12C mutants H358, H2122): strongly increased the toxicity | synergy with AMG510 in colony formation matrix ([2]; compound (A) combined with AMG510, H358, H2122): strong synergy | synergy with SHP2 inhibition in colony formation matrix [3]: Synergizes | cell proliferation (confluence) ([4]; compound (A) in combination with Trametinib, RMC4550 or AMG510, FIG. 5A): Abrogates Cell Proliferations | synergistic effect of combination (confluence and Caspase 3/7 activity) ([4]; compound (A) with MEK, SHP2 and KRASG12C inhibitors, example 5, FIGS. 5A and 5B): synergistic effect | apoptosis (Caspase 3/7 activity) [5]: Induces Apoptosis
